Measured values from patent US20240199623A1 (ILDONG PHARMACEUTICAL CO., LTD., priority 2020, published 2024).
≈ marks a conversion by molar mass, not a printed value.

Assays:
[1] = Phosphate-buffered saline (PBS) solubility of compounds; format: physicochemical; conditions: aqueous buffer, thermodynamic from solid, PBS pH 7.5, 0.5 mg/mL, vortexed 90 min, filtered, LC-MS/MS, read-out: Solubility Range
Protocol: PBS solutions (pH 7.5) were prepared according to the following compositions and stored at 4° C. Test compounds were dissolved in PBS (pH 7.5) at 0.5 mg/mL and vortexed for 90 min. The PBS solution was sequentially filtered through a 0.45, 1.2, […] syringe filter. Concentration of test compounds were determined using LC-MS/MS with appropriate dilution of the samples.

[2] = tested on: C57BL/6 female mice; experiment: Scopolamine induced tear volume reduction model; format: in vivo, mouse; conditions: scopolamine-injected mice, ophthalmic solution topically on both eyes 3 times a day, phenol red thread; average if evaluated twice
Protocol: Seven-week old C57BL/6 female mice were used.
Scopolamine hydrobromide was purchased from Sigma Aldrich (Cat No. S0929), dissolved in saline, and sterilized prior to use.
Zone-Quick phenol red thread was obtained from Menicon.
The test compounds used in this experiment were dissolved in PBS containing 1% of surfactant.
Scopolamine (0.2 ml of 2.5 mg/mL solution) was injected subcutaneously 3 times a day to induce a decrease in the tear volume in the mouse. At the same time, the ophthalmic solution of test compounds or vehicle were topically administered onto both eyes 3 times a day. Tear volume was measured by phenol red thread before dosing (basal level) and 1 hour after the last administration of scopolamine and ophthalmic solution. The results were obtained by measuring the length of the phenol red thread turning red by tears. The schedule of study is expressed as FIG. 1.
If the test compound was evaluated twice, the average value was used.

[3] = molecular target: T1, human wild type-CFTR (Homo sapiens, UniProt P13569); experiment: Short-circuit current measurement; format: cell-based; set-up: expressed in transfected cells; conditions: FRT cells expressing human wild type-CFTR; Forskolin 20 μM signal used as 100% activity; read-out: Short-circuit current measurement (EC50) Concentration range
T1 sequence (P13569 whole entry): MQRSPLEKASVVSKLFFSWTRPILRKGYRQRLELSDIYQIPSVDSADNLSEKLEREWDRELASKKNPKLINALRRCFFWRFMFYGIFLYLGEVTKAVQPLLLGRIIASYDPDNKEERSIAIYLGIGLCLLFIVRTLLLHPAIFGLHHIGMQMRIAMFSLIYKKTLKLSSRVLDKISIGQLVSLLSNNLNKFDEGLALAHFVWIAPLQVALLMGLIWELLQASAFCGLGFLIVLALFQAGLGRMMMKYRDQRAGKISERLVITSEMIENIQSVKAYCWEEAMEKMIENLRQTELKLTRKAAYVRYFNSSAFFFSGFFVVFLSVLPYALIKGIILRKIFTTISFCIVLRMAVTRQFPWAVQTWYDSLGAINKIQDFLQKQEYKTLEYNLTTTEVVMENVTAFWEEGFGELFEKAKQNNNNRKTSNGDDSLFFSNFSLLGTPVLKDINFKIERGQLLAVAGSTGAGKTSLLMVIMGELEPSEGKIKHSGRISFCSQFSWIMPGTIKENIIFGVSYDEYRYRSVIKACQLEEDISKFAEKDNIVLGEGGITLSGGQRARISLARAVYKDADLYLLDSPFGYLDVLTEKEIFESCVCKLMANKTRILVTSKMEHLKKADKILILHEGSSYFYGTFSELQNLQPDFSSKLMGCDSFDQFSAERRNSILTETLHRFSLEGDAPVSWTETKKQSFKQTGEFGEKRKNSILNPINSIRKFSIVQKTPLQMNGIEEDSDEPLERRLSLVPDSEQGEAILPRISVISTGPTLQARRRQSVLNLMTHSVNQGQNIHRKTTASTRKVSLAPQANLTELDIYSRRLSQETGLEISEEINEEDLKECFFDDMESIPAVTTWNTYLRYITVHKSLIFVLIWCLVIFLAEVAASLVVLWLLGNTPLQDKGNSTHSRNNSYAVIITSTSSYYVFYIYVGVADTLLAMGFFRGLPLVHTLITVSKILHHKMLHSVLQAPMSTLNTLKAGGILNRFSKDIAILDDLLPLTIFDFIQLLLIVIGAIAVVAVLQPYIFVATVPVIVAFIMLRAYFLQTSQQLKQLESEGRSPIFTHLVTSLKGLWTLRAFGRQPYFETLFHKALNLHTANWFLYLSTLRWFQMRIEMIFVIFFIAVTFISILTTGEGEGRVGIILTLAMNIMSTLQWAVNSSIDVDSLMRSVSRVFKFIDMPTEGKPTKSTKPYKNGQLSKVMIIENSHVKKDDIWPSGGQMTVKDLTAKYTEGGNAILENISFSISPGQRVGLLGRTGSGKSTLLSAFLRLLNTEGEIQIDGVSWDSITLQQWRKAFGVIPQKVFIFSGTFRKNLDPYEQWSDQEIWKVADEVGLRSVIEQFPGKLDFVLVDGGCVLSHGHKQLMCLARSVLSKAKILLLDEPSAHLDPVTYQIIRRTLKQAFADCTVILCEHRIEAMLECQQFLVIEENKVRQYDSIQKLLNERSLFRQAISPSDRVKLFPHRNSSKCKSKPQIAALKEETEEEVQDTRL
Source text: Forskolin (Tocris cat. #1099), CFTRinh-172 (Tocris cat. #3430), amphotericin B (Tocris cat. #6930), dimethyl sulfoxide (Sigma cat. #D4540), EVC4000 Multi-Channel V/I Clamp (World Precision Instruments, Sarasota, FL), PowerLab 4/35 (AD Instruments, Castle Hill, Australia), Labchart Pro 7, GraphPad Prism 5 (GraphPad Software, Inc.). Fisher rat thyroid (FRT) cells expressing human wild type-CFTR were provided by Dr. Alan Verkman (University of California, San Francisco) and grown in DMEM/F12 medium (1:1) supplemented with 10% FBS, 2 mM glutamine, 100 units/ml penicillin and 100 μg/ml streptomycin. Snapwell inserts containing CF TR-expressing FRT cells were mounted in Ussing chambers (Physiologic Instruments, San Diego, CA). […] Forskolin, test compounds, and CFTRinh-172 were added to the apical and basolateral bath solution. Apical membrane current and short-circuit current were measured with an EVC4000 Multi-Channel V/I Clamp (World Precision Instruments, Sarasota, FL) and recorded using PowerLab 4/35 (AD Instruments, Castle Hill, Australia). Data were collected and analyzed with ADInstruments acquisition software Labchart Pro 7 software. The sampling rate was 4 Hz.

[4] = molecular target: T1, human wild type-CFTR; experiment: Cell-based YFP assay; set-up: expressed in transfected cells; host or cells: CHO-K1 (Chinese hamster ovary); conditions: CHO-K1 cells expressing human wild type-CFTR and YFP-H148Q/I152L; forskolin 20 μM = 100% activity; read-out: Cell-based YFP Assay (EC50) Concentration Range
Procedure, shortened: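 CHO-K1 cells co-expressing human wild-type CFTR and YFP-H148Q/I152L halide sensor, grown 48 h at 37 °C, then in PBS. YFP quenching by I⁻ influx read at 37 °C after adding 140 mM I⁻ solution, sampled every 0.4 s for 14 s. Triplicates averaged; EC50 fitted.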

| Structure (SMILES) | solubility at 90 min [1] [µg/mL] | Ratio of tear volume (test compound to vehicle) [2] | EC50 [3] [nM] | EC50 [4] [nM] |
| --- | --- | --- | --- | --- |
| COc1ccc(-c2ccnc3cc(C(=O)N4CCN(C(=O)c5c(F)c(F)c(F)c(F)c5F)[C@@H](C)C4)nn23)cc1OC [Compound 259, (S)-(7-(3,4-dimethoxyphenyl)pyrazolo[1,5-a]pyrimidin-2-yl) (3-methyl-4-(perfluorobenzoyl)piperazin-1-yl)methanone] | 0.1 to 10 (≈ 0.174 to 17.4 µM) | 0.94 | 200 to 2000 | 200 to 2000 |
| CCOc1ccc(NC(=O)c2cc3nccc(-c4ccc(OC)c(OC)c4)n3n2)cc1 [Compound 3, 7-(3,4-dimethoxyphenyl)-N-(4-ethoxyphenyl)pyrazolo[1,5-a]pyrimidine-2-carboxamide] | < 0.1 | 1.20 | < 200 | < 200 |
| COC(=O)c1ccc(NC(=O)c2cc3nccc(-c4ccc(OC)c(OC)c4)n3n2)cc1Cl [Compound 140, methyl 2-chloro-4-(7-(3,4-dimethoxyphenyl)pyrazolo[1,5-a]pyrimidine-2-carboxamido)benzoate] | < 0.1 | 1.48 | < 200 | < 200 |
| COC(=O)C12CC(NC(=O)c3cc4nccc(-c5ccc(OC)c(OC)c5)n4n3)(C1)C2 [Compound 36, methyl 3-(7-(3,4-dimethoxyphenyl)pyrazolo[1,5-a]pyrimidine-2-carboxamido)bicyclo[1.1.1]pentane-1-carboxylate] | 0.1 to 10 (≈ 0.237 to 23.7 µM) | 1.23 | ≥ 2000 | 200 to 2000 |
| COc1ccc(NC(=O)c2cc3nccc(-c4ccc(OC)c(OC)c4)n3n2)cc1 [Compound 6, 7-(3,4-dimethoxyphenyl)-N-(4-methoxyphenyl)pyrazolo[1,5-a]pyrimidine-2-carboxamide] | < 0.1 | 1.58 | < 200 | < 200 |
| COc1ccc(-c2ccnc3cc(C(=O)Nc4ccc(C(=O)O)cc4C)nn23)cc1OC [Compound 126, 4-(7-(3,4-dimethoxyphenyl)pyrazolo[1,5-a]pyrimidine-2-carboxamido)-3-methylbenzoic acid] | 0.1 to 10 (≈ 0.231 to 23.1 µM) | 0.97 | ≥ 2000 | 200 to 2000 |
| COc1ccc(-c2ccnc3cc(C(=O)Nc4ccc(N5CCC6(CC5)OCCO6)cc4)nn23)cc1OC [Compound 274, N-(4-(1,4-dioxa-8-azaspiro[4.5]decan-8-yl)phenyl)-7-(3,4-dimethoxyphenyl)pyrazolo [1,5-a]pyrimidine-2-carboxamide] | < 0.1 | 1.07 | < 200 | < 200 |
| COC(=O)c1ccc(NC(=O)c2cc3nccc(-c4ccc(OC)c(OC)c4)n3n2)cc1F [Compound 141, methyl 4-(7-(3,4-dimethoxyphenyl)pyrazolo [1,5-a]pyrimidine-2-carboxamido)-2-fluorobenzoate] | < 0.1 | 1.34 | < 200 | < 200 |
| COc1ccc(-c2ccnc3cc(C(=O)Nc4ccc(N5CCN(C(=O)OC(C)(C)C)CC5)cc4)nn23)cc1OC [Compound 271, tert-butyl 4-(4-(7-(3,4-dimethoxyphenyl)pyrazolo [1,5-a]pyrimidine-2-carboxamido)phenyl) piperazine-1-carboxylate] | < 0.1 | 1.17 | < 200 | < 200 |
| COc1ccc(-c2ccnc3cc(C(=O)Nc4ccc(NC(=O)CNC(=O)OC(C)(C)C)cc4)nn23)cc1OC [Compound 280, tert-butyl (2-((4-(7-(3,4-dimethoxyphenyl)pyrazolo [1,5-a]pyrimidine-2-carboxamido)phenyl)amino)-2-oxoethyl)carbamate] | < 0.1 | 1.32 | < 200 | < 200 |
| COc1ccc(-c2ccnc3cc(C(=O)Nc4ccc(C(=O)N5CCN(C)CC5)cc4F)nn23)cc1OC [Compound 158, 7-(3,4-dimethoxyphenyl)-N-(2-fluoro-4-(4-methylpiperazine-1-carbonyl)phenyl)pyrazolo[1,5-a]pyrimidine-2-carboxamide] | < 0.1 | 1.40 | < 200 | < 200 |
| COc1ccc(-c2ccnc3cc(C(=O)N[C@H]4CC[C@@H](C(=O)N5CCOCC5)CC4)nn23)cc1OC [Compound 72, 7-(3,4-dimethoxyphenyl)-N-((1S,4S)-4-(morpholine-4-carbonyl)cyclohexyl) pyrazolo[1,5-a]pyrimidine-2-carboxamide] | > 10 | 1.06 | ≥ 2000 | 200 to 2000 |
| COc1ccc(-c2ccnc3cc(C(=O)N[C@H]4CC[C@H](C(=O)OCCCN5CCOCC5)CC4)nn23)cc1OC [Compound 197, 3-morpholinopropyl (1r,4r)-4-(7-(3,4-dimethoxyphenyl)pyrazolo [1,5-a]pyrimidine-2-carboxamido)cyclohexane-1-carboxylate] |  | 1.18 | 200 to 2000 | 200 to 2000 |
| COc1ccc(-c2ccnc3cc(C(=O)Nc4ccc(C(=O)N5CCN(C(C)C)CC5)cc4)nn23)cc1OC [Compound 159, 7-(3,4-dimethoxyphenyl)-N-(4-(4-isopropylpiperazine-1-carbonyl)phenyl)pyrazolo[1,5-a]pyrimidine-2-carboxamide] | 0.1 to 10 (≈ 0.189 to 18.9 µM) | 2.11 | 200 to 2000 | 200 to 2000 |
| COc1ccc(-c2ccnc3cc(C(=O)NC45CCC(C(=O)O)(CC4)CC5)nn23)cc1OC [Compound 149, 4-(7-(3,4-dimethoxyphenyl)pyrazolo[1,5-a]pyrimidine-2-carboxamido)bicyclo[2.2.2]octane-1-carboxylic acid] | > 10 | 1.26 | ≥ 2000 | 200 to 2000 |
| COc1ccc(-c2ccnc3cc(C(=O)N[C@H]4CC[C@H](O)CC4)nn23)cc1OC [Compound 69, 7-(3,4-dimethoxyphenyl)-N-((1R,4R)-4-hydroxycyclohexyl)pyrazolo [1,5-a]pyrimidine-2-carboxamide] | > 10 | 0.76 | ≥ 2000 | 200 to 2000 |
| COc1ccc(-c2ccnc3cc(C(=O)NC4CCCCC4)nn23)cc1OC [Compound 2, N-cyclohexyl-7-(3,4-dimethoxyphenyl)pyrazolo[1,5-a]pyrimidine-2-carboxamide] | < 0.1 | 1.40 | 200 to 2000 | < 200 |
| COc1ccc(-c2ccnc3cc(C(=O)N4CCN(Cc5c(F)cccc5F)CC4)nn23)cc1OC [Compound 212, (4-(2,6-difluorobenzyl)piperazin-1-yl)(7-(3,4-dimethoxyphenyl)pyrazolo [1,5-a]pyrimidin-2-yl)methanone] | 0.1 to 10 (≈ 0.203 to 20.3 µM) | 1.43 | ≥ 2000 | < 200 |
